In ChEMBL document CHEMBL3525927, “Measurement of unbound drug exposure in brain: modeling of pH partitioning explains diverging results between the brain slice and brain homogenate methods” (Drug Metab Dispos, 2011):

Tests used:
in vitro = conditions: Sprague-Dawley, rat, brain homogenate
Brain [1] = conditions: rat, 5 h, 0.1 µM
Description: Unbound volume of distribution in Sprague-Dawley rat brain slices at 100 nM after 5 hrs

in vivo = conditions: Sprague-Dawley, rat
Brain [2] = conditions: rat, in vivo, 5 h, 0.1 µM
Description: Drug uptake in Sprague-Dawley rat brain slices at 100 nM after 5 hrs in presence of 20 uM of MK-571

[3] = Dissociation constant, pKa of the basic compound by capillary electrophoresis-mass spectrometry analysis; type: physicochemical
Brain [4] = conditions: rat, in vivo, 5 h, 0.1 µM; remark: listed apart in the source
Description: Drug uptake in Sprague-Dawley rat brain slices at 100 nM after 5 hrs in presence of 10 uM of fumitremorgin-C and 20 uM of MK-571

Brain [5] = conditions: rat, in vivo, 5 h, 0.1 µM; remark: listed apart in the source
Description: Drug uptake in Sprague-Dawley rat brain slices at 100 nM after 5 hrs in presence of 10 uM of fumitremorgin-C

Brain [6] = conditions: Sprague-Dawley, rat, brain homogenate, 5 µM
Brain [7] = experiment: Drug uptake in Sprague-Dawley rat brain slices in presence of 1 uM of decynium-22; type: ADME, tissue-based
Brain [8] = experiment: Drug uptake in Sprague-Dawley rat brain slices in presence of 50 nM of monensin; type: ADME, tissue-based
Brain [9] = experiment: Drug uptake in Sprague-Dawley rat brain slices in presence of 50 pM to 50 nM of monensin; type: ADME, tissue-based

Description for physchem: Dissociation constant, pKa of the acidic compound by capillary electrophoresis-mass spectrometry analysis

Compound | pKa (physchem) | fraction unbound at 5 µM (in vitro) | Vdu (Brain [1]) | Kp uu (in vivo; brain and plasma) | Vdu (Brain [1]; in vivo) | Kp uu (in vivo; brain) | further results
Cc1ncc2n1-c1ccc(Cl)cc1C(c1ccccc1F)=NC2 [MIDAZOLAM] | 5.4 | 0.026 | 29 mL/g | 0.74 | – | – | –
O=C1c2c(O)ccc(O)c2C(=O)c2c(NCCNCCO)ccc(NCCNCCO)c21 [MITOXANTRONE] | 8.4 | 0.0046 | 1757 mL/g | 8.01 | – | – | Compound recovery (Brain [2]): Active; pKa [3]: 3.2; Compound recovery (Brain [4]): Active; Compound recovery (Brain [5]): Active
CN1CC[C@]23c4c5ccc(O[C@@H]6O[C@H](C(=O)O)[C@@H](O)[C@H](O)[C@H]6O)c4O[C@H]2[C@@H](O)C=C[C@H]3[C@H]1C5 [MORPHINE 3-GLUCURONIDE] | – | 0.97 | 0.6 mL/g | 0.58 | – | – | –
CN1CC[C@]23c4c5ccc(O)c4O[C@H]2[C@@H](O[C@@H]2O[C@H](C(=O)O)[C@@H](O)[C@H](O)[C@H]2O)C=C[C@H]3[C@H]1C5 [MORPHINE GLUCURONIDE] | 9 | 0.87 | 0.98 mL/g | 0.86 | – | – | pKa [3]: 4.3
CO[C@@]1(NC(=O)C(C(=O)O)c2ccc(O)cc2)C(=O)N2C(C(=O)O)=C(CSc3nnnn3C)CO[C@@H]21 (stereo partly drawn) [MOXALACTAM] | – | – | – | – | 0.46 mL/g | 0.46 | Fu (Brain [6]): 12; pKa [3]: 2.9
CC(C)(C)NCC(O)COc1cccc2c1CC(O)C(O)C2 (stereo not drawn) [NADOLOL] | 9.9 | – | – | – | – | – | –
CN(C)C(=O)Oc1cccc([N+](C)(C)C)c1 [NEOSTIGMINE] | – | 0.95 | 3.2 mL/g | 3.07 | – | – | Compound recovery (Brain [7]): Not Active; Compound recovery (Brain [8]): Active
CCn1cc(C(=O)O)c(=O)c2cc(F)c(N3CCNCC3)cc21 [NORFLOXACIN] | 8.7 | 0.58 | – | – | 2.9 mL/g | 1.66 | pKa [3]: 4.4
C=CCOc1ccccc1OCC(O)CNC(C)C (stereo not drawn) [OXPRENOLOL] | 9.7 | 0.28 | – | – | 11.8 mL/g | 3.25 | –
CN1CC[C@]23c4c5ccc(O)c4O[C@H]2C(=O)CC[C@@]3(O)[C@H]1C5 [OXYMORPHONE] | 8.7 | 0.75 | 4 mL/g | 2.97 | – | – | –
CC(=O)O[C@H]1C(=O)[C@@]2(C)[C@H]([C@H](OC(=O)c3ccccc3)[C@]3(O)C[C@H](OC(=O)[C@H](O)[C@@H](NC(=O)c4ccccc4)c4ccccc4)C(C)=C1C3(C)C)[C@]1(OC(C)=O)CO[C@@H]1C[C@@H]2O [PACLITAXEL] | – | 0.012 | 769 mL/g | 9.03 | – | – | –
CC(C)NCC(O)COc1cccc2[nH]ccc12 (stereo not drawn) [PINDOLOL] | – | 0.4 | – | – | – | 2.89 | –
CC(C)NCC(O)COc1cccc2ccccc12 (stereo not drawn) [PROPRANOLOL] | – | 0.029 | 112 mL/g | – | – | – | Compound recovery (Brain [9]): Not Active
C=C[C@H]1C[N@@]2CC[C@H]1C[C@@H]2[C@@H](O)c1ccnc2ccc(OC)cc12 [QUINIDINE] | – | – | – | – | – | 3.45 | –
C=C[C@H]1C[N@@]2CC[C@H]1C[C@H]2[C@H](O)c1ccnc2ccc(OC)cc12 [QUININE] | – | – | – | – | – | 3.51 | –
CO[C@H]1/C=C/O[C@@]2(C)Oc3c(C)c(O)c4c(O)c(c(/C=N/N5CCN(C)CC5)c(O)c4c3C2=O)NC(=O)/C(C)=C\C=C\[C@H](C)[C@H](O)[C@@H](C)[C@@H](O)[C@@H](C)[C@H](OC(C)=O)[C@@H]1C [RIFAMPIN] | 7.6 | – | – | – | – | – | pKa [3]: 2.2
O=C(O)c1ccccc1O [SALICYLIC ACID] | – | 0.63 | – | – | 1 mL/g | 0.62 | –
O=C(O)c1cc(/N=N/c2ccc(S(=O)(=O)Nc3ccccn3)cc2)ccc1O [SULFASALAZINE] | – | – | – | – | – | – | pKa [3]: 2
Nc1c2c(nc3ccccc13)CCCC2 [TACRINE] | – | 0.16 | – | – | 22 mL/g | – | –
CC[N+](CC)(CC)CC [TETRYLAMMONIUM] | – | 1 | – | – | 9 mL/g | 8.95 | Compound recovery (Brain [7]): Not Active; Compound recovery (Brain [8]): Active
CCCC(C)C1(CC)C(=O)NC(=S)NC1=O (stereo not drawn) [THIOPENTAL] | – | – | – | – | – | – | pKa [3]: 7.6
CSc1ccc2c(c1)N(CCC1CCCCN1C)c1ccccc1S2 (stereo not drawn) [THIORIDAZINE] | 8.9 | 0.00067 | – | – | 3333 mL/g | 2.24 | –
CC1(C)O[C@@H]2[C@@H](CO[C@@]3(COS(N)(=O)=O)OC(C)(C)O[C@@H]23)O1 [TOPIRAMATE] | – | 0.61 | 3.2 mL/g | 1.96 | – | – | –
COc1cccc(C2(O)CCCCC2CN(C)C)c1 (stereo not drawn) [TRAMADOL] | 9.7 | 0.53 | – | – | 4.2 mL/g | 2.25 | –
